Data as given in US4182877A, “Substituted anthranilates” (Commonwealth Scientific and Industrial Research Organization, priority 1976, dated 1980).
≈ marks a conversion by molar mass, not a printed value.

What follows are molecules tested on Tilletia foetida (assay: In vitro inhibition of germination of Tilletia foetida (wheat smut) spores on agar medium). Conditions: Tilletia laevis, 10° C. in the dark, 8-9 days, tested at 5, 10, 25, 50, 100 and 150 ppm, spores germinated as percentage of control, read-out: Minimum inhibitory concentration (ppm) which reduces germination to <20% control.
Format: cell-based
Procedure: In vitro assays using compounds of the formula I were carried out as follows. An agar medium prepared from Difco "Bacto-Agar" and distilled water was sterilised in an autoclave. Aliquots of the test compounds in acetone solution were added to two duplicate samples of the medium to give final concentrations of 5, 10, 25, 50, 100 and 150 ppm, and the resulting solutions poured into sterilised petri dishes and inoculated with Tilletia foetida (wheat smut) from the kernels of infected wheat. […] The inhibition of germination due to the test compounds was then determined by estimating (microscope) the spores germinated as a percentage of control.

Compound	MIC
CCOC(=O)c1c(Cl)cc(C)cc1N(CC)CC [R^1 = R^2 = R^3 = Et]	25 µg/mL (≈ 92.7 µM)
CCOC(=O)c1c(N(C)C)cc(C)c([N+](=O)[O-])c1Cl [Compound 6, Ethyl-6-chloro-4,N,N-trimethyl-5-nitroanthranilate]	< 5 µg/mL
CCOC(=O)c1c(N(CC)CC)cc(C)c([N+](=O)[O-])c1Cl [Compound 7]	25 µg/mL (≈ 79.4 µM)
CCOC(=O)c1c(N(CC)CC)cc(C)c(SC#N)c1Cl [Compound 5]	10 µg/mL (≈ 30.6 µM)
CCOC(=O)c1c(Cl)cc(C)cc1N(C)C [Compound 1, Ethyl 6-chloro-4,N,N-trimethylanthranilate]	25 µg/mL (≈ 103 µM)
CCOC(=O)c1c(N(C)C)cc(C)c(SC#N)c1Cl [Compound 4, Ethyl 6-chloro-4,N,N-trimethyl-5-thiocyanoanthranilate]	< 5 µg/mL
CCOC(=O)c1c(Cl)c(Cl)c(C)c(Cl)c1N(C)C [Compound 3, Ethyl 3,5,6-trichloro-4,N,N-trimethylanthranilate]	5 µg/mL (≈ 16.1 µM)
